# Measured values published in publication PMC5725832, “Evaluation of the effect of D-amino acid incorporation into amyloid-reactive peptides” (Journal of Translational Medicine, 2017).
# Experiments:
# [1] = mouse, in vivo, iv
# Method: Peptides (20–40 μg) were radiolabeled with iodine-125 (^125I; Perkin Elmer, Waltham, MA) as previously described. Briefly, ~ 2 mCi of ^125I in buffered sodium phosphate pH 7.6 was mixed with peptide and 20 μg chloramine T in a volume of 10 µL water for 1 min. The reaction was quenched using 20 μg sodium metabisulphite in 10 µL water. Radiolabeled product was separated from free isotope by gel filtration chromatography using a Sephadex G-25 size-exclusion matrix (PD10; GE Healthcare) equilibrated with 0.1% gelatin/PBS. Fractions were collected manually and radioactivity in each measured by gamma counting after which the peak fractions were pooled. Radiochemical purity was assessed qualitatively by estimating the free radioiodide from phosphor images (Cyclone Storage Phosphor System, PerkinElmer, Shelton, CT) of SDS-PAGE gels. SPECT/CT imaging was performed as described previously. […] Low energy (^125I; 25–45 keV) gamma photons were detected at each of 60, 16-s projections with 90 mm of bed travel in 1.5 revolutions. […] A small piece of each tissue was weighed in tared vials and radioactivity quantified using an automated gamma counter (1480 Wizard 3 Gamma Counter, Perkin Elmer). The tissue radioactivity data were expressed as % injected dose per gram of tissue (%ID/g). […]
# [2] = Circular dichroism, heparin-induced coil-to-helix transition (ellipticity at 222 nm); format: physicochemical; conditions: CD, peptide 0.05 mg/mL, 2.9 mL sample, 1 cm path; titration of low molecular weight heparin (enoxaparin) up to 1.5 mg; data collected in triplicate
# Method: CD spectra were obtained for all peptides (0.05 mg/mL in PBS) using a DSM 1000 CD instrument (Olis Inc., Bogart, Georgia) with a peptide sample volume of 2.9 mL and a 1 cm cuvette path length. Data were collected in triplicate over the 190–250 nm wavelength range with 1 nm increments. Increasing amounts of low molecular weight heparin (Enoxaparin sodium, Sanofi, Bridgewater, NJ) up to 1.5 mg was added to each peptide to induce secondary structure transitions. All data were corrected for background by subtraction of a PBS or PBS with enoxaparin CD spectrum. Mean residue ellipticity [Θ] was calculated according to: Θ *(MW/no. AA)/(10 *conc. *l) where: Θ is ellipticity (millidegrees); MW is the molecular weight of the peptide (3356.8 Da); no. AA, is the number of amino acid residues, (31); conc. is the peptide concentration (mg/mL), and l, is the cuvette path length (cm).
substance,measurement,setting,value
"aqaYS KAQKAQAKQAKQAQKAQKAQAKQAKQ [^aqap5, 31-residue p5 variant with three D-amino acids at the N-terminus; tested 125I-labeled in vivo]",radioactivity in the kidneys,[1],~ 39 %ID/g
same,half maximal value of the heparin-mediated transition in mean residue ellipticity at 222 nm,[2],0.33 mg
